One assay has as its system T47D. Description: Cytotoxicity against Homo sapiens (human) T47D cells assessed as inhibition of cell proliferation after 72 hr by MTT assay. In kind it is functional, cell-based.
A further assay concerns MDA-MB-231. In words: Cytotoxicity against Homo sapiens (human) MDA-MB-231 cells assessed as inhibition of cell proliferation after 72 hr by MTT assay. In kind it is functional, cell-based. Conditions: MDA-MB-231, 72 h. On the technique in general: Tetrazolium assays rely on reduction of a dye to a coloured formazan, in cell work by metabolically active cells.
For the next assay, the system named is MCF7. Description: Cytotoxicity against Homo sapiens (human) MCF7 cells assessed as inhibition of cell proliferation after 72 hr by MTT assay. Conditions: MCF7, 72 h. In kind it is functional, cell-based.
The test system of another assay is MCF7 (Homo sapiens). Description: Cytotoxicity against Homo sapiens (human) MCF7 cells assessed as inhibition of cell proliferation after 72 hr by MTT assay. The note with it: MCF7, 72 h.

Molecules are shown by their SMILES.

Drawing on ChEMBL document CHEMBL3046729, “Design, synthesis, and cytotoxic activities of new 2,4,5-triarylimidazoles” (Med Chem Res, 2013), this text covers IC50 for nine compounds.

`CN(C)CCOc1ccc(-c2nc(-c3ccccc3)[nH]c2-c2ccccc2)cc1`: the IC50 (in general, the point on the concentration scale where inhibition reaches its midpoint) turned out to be 50 µM in the assay on T47D and 53 µM with MDA-MB-231.

With `CC/C(=C(\c1ccccc1)c1ccc(OCCN(C)C)cc1)c1ccccc1` [TAMOXIFEN], the IC50 with T47D was determined as 12.1 µM; in the assay on MDA-MB-231, 25.1 µM; in the assay with MCF7, 55.5 µM.

`Oc1ccc(-c2nc(-c3ccc(OCCN4CCCCC4)cc3)c(-c3ccccc3)[nH]2)cc1`: the IC50 in the assay with T47D, in the assay with MDA-MB-231 and in the assay on MCF7 was < 0.1 µM each time.

Regarding `CN(C)CCOc1ccc(-c2nc(-c3ccc(F)cc3)[nH]c2-c2ccccc2)cc1`, the figures for the IC50 in the assay on T47D and in the assay on MCF7 (Homo sapiens) were 61 µM and 82 µM, respectively.

Take `COc1ccc(-c2nc(-c3ccc(OCCN(C)C)cc3)c(-c3ccccc3)[nH]2)cc1`: the IC50 in the assay with T47D was 28 µM; with MDA-MB-231 it was 42 µM.

Turning to `Fc1ccc(-c2nc(-c3ccc(OCCN4CCCCC4)cc3)c(-c3ccccc3)[nH]2)cc1`, the figures for the IC50 with T47D, in the assay on MDA-MB-231 and in the assay with MCF7 were 61 µM, 78 µM and > 100 µM, respectively.

As to `COc1ccc(-c2nc(-c3ccc(OCCN4CCCCC4)cc3)c(-c3ccccc3)[nH]2)cc1`, the IC50 in the assay on T47D amounted to 54 µM; with MDA-MB-231 it was 65 µM; in the assay with MCF7, 71 µM.

As for `c1ccc(-c2nc(-c3ccc(OCCN4CCCCC4)cc3)c(-c3ccccc3)[nH]2)cc1`, the IC50 in the assay with T47D, in the assay on MDA-MB-231 and in the assay on MCF7 was < 0.1 µM throughout.

In the case of `CN(C)CCOc1ccc(-c2nc(-c3ccc(O)cc3)[nH]c2-c2ccccc2)cc1`, the IC50 with T47D worked out at 63 µM; in the assay with MDA-MB-231, 70 µM; in the assay on MCF7 it was 82 µM.
